Source: paper PMC11822212, “High-throughput screening identifies Aurora kinase B as a critical therapeutic target for Merkel cell carcinoma” (Nature Communications, 2025)
Read-outs that look alike come from different tables or passages of the source.

Columns and labels:
HACAT cells = experiment: qHTS cell viability (CellTiter-Glo, 72 h; primary screen), control cell line; format: cell-based, human
[1] = test system: control cell lines (HACAT, HEK293T, CRL-7250, NIH-3T3); experiment: qHTS cell viability, control cell lines as a group (mean AUC, Control.avg); format: cell-based
MKL-1 cells (VP-MCC) = experiment: qHTS cell viability (CellTiter-Glo, 72 h; primary and follow-up small molecule screen); format: cell-based, human
WAGA cells (VP-MCC) = experiment: as above; format: cell-based, human
MKL-2 cells (VP-MCC) = experiment: as above; format: cell-based, human
[2] = test system: six MCC cell lines and four control cell lines; experiment: qHTS cell viability, all 10 cell lines screened; format: cell-based
HEK293T cells = experiment: qHTS cell viability (CellTiter-Glo, 72 h; primary screen), control cell line; format: cell-based, human
[3] = test system: MCC cell lines (WAGA, MKL-1, MKL-2, MCC13, MCC26, UISO); experiment: qHTS cell viability, all six MCC cell lines as a group (mean AUC, MCC.avg); format: cell-based, human
UISO cells (VN-MCC) = experiment: qHTS cell viability (CellTiter-Glo, 72 h; primary and follow-up small molecule screen); format: cell-based, human
MCC26 cells (VN-MCC) = experiment: as above; format: cell-based, human
[4] = test system: VP-MCC cell lines (WAGA, MKL-1, MKL-2); experiment: qHTS cell viability, VP-MCC cell lines as a group (mean AUC, VP.MCC.avg); format: cell-based, human
MCC13 cells (VN-MCC) = experiment: qHTS cell viability (CellTiter-Glo, 72 h; primary and follow-up small molecule screen); format: cell-based, human
CRL-7250 cells = experiment: qHTS cell viability (CellTiter-Glo, 72 h; primary screen), control cell line; format: cell-based
NIH-3T3 cells = experiment: as above; format: cell-based, mouse
[5] = test system: VN-MCC cell lines (MCC13, MCC26, UISO); experiment: qHTS cell viability, VN-MCC cell lines as a group (mean AUC, VN.MCC.avg); format: cell-based, human
[6] = NPC library, qHTS dose-response AUC, HACAT control
[7] = NPC library, mean AUC of control cell lines
[8] = NPC library, qHTS dose-response AUC, MKL1
[9] = NPC library, qHTS dose-response AUC, WAGA
[10] = NPC library, qHTS dose-response AUC, MKL2
[11] = NPC library, therapeutic window: Control avg AUC minus MCC avg AUC
[12] = NPC library, mean AUC of six MCC cell lines
[13] = NPC library, qHTS dose-response AUC, UISO
[14] = NPC library; qHTS dose-response AUC, MCC26
[15] = NPC library, mean AUC of VP-MCC cell lines
[16] = NPC library, therapeutic window: Control avg AUC minus VP-MCC avg AUC
[17] = NPC library, qHTS dose-response AUC, MCC13
[18] = NPC library, qHTS dose-response AUC, CRL7250 control
[19] = NPC library, qHTS dose-response AUC, NIH3T3 control
[20] = NPC library, mean AUC of VN-MCC cell lines
[21] = NPC library, therapeutic window: Control avg AUC minus VN-MCC avg AUC
[22] = MIPE library, 11-point DRC, control cell line, sheet S2E
[23] = MIPE library, mean AUC of control cell lines, sheet S2E
[24] = MIPE library, 11-point DRC, sheet S2E
[25] = MIPE library, Control AUC minus MCC AUC (therapeutic window), sheet S2E
[26] = MIPE library, mean AUC of six MCC cell lines, sheet S2E
[27] = MIPE library, Control AUC minus VP-MCC AUC (therapeutic window), sheet S2E
[28] = MIPE library, mean AUC of VP-MCC cell lines, sheet S2E
[29] = MIPE library, Control AUC minus VN-MCC AUC (therapeutic window), sheet S2E
[30] = MIPE library, mean AUC of VN-MCC cell lines, sheet S2E

SMILES: CCCCCC(=O)O[C@]1(C(C)=O)CC[C@H]2[C@@H]3CCC4=CC(=O)CC[C@]4(C)[C@H]3CC[C@@]21C [Hydroxyprogesterone caproate]
- HACAT_AUC (HACAT cells; [6]): 471.336
- Control_Avg_AUC [1, 7]: 456.027
- MKL1_AUC (MKL-1 cells (VP-MCC); [8]): 343.375
- WAGA_AUC (WAGA cells (VP-MCC); [9]): 360.251
- MKL2_AUC (MKL-2 cells (VP-MCC); [10]): 288.23
- Control-MCC [2, 11]: 74.9886
- HEK293T_AUC (HEK293T cells; NPC library, qHTS dose-response AUC, HEK293T control): 404.302
- MCC_Avg_AUC ([3]; NPC library, mean AUC of all 6 MCC cell lines): 381.038
- MCC_Avg_AUC [3, 12]: 381.038
- UISO_AUC (UISO cells (VN-MCC); [13]): 419.635
- MCC26_AUC (MCC26 cells (VN-MCC); NPC library, qHTS dose-response AUC, MCC26): 432.584
- MCC26_AUC (MCC26 cells (VN-MCC); [14]): 432.583
- Control-VP-MCC ([4]; Control AUC minus VP-MCC AUC): 125.408
- VP-MCC_Avg_AUC [4, 15]: 330.619
- Control-VP-MCC [4, 16]: 125.408
- MCC13_AUC (MCC13 cells (VN-MCC); [17]): 442.155
- CRL7250_AUC (CRL-7250 cells; [18]): 467.486
- NIH3T3_AUC (NIH-3T3 cells; [19]): 480.983
- Control-VN-MCC ([5]; Control AUC minus VN-MCC AUC): 24.569
- VN-MCC_Avg_AUC [5, 20]: 431.458
- Control-VN-MCC [5, 21]: 24.569

SMILES: CC(C)(C)OC(=O)Nc1ccc(-c2cc(C(=O)NCCCCCCC(=O)NO)no2)cc1 [ISOX]
- HACAT_AUC (HACAT cells; [22]): 439.928
- Control_Avg_AUC [1, 23]: 405.698
- MKL1_AUC (MKL-1 cells (VP-MCC); [24]): 349.979
- WAGA_AUC (WAGA cells (VP-MCC); [24]): 354.914
- MKL2_AUC (MKL-2 cells (VP-MCC); [24]): 356.229
- Control-MCC [2, 25]: 15.5032
- HEK293T_AUC (HEK293T cells; [22]): 382.485
- MCC_Avg_AUC [3, 26]: 390.195
- UISO_AUC (UISO cells (VN-MCC); [24]): 418.415
- MCC26_AUC (MCC26 cells (VN-MCC); [24]): 447.653
- Control-VP-MCC [4, 27]: 51.9911
- VP-MCC_Avg_AUC [4, 28]: 353.707
- MCC13_AUC (MCC13 cells (VN-MCC); [24]): 413.98
- CRL7250_AUC (CRL-7250 cells; [22]): 411.627
- NIH3T3_AUC (NIH-3T3 cells; [22]): 388.752
- Control-VN-MCC [5, 29]: -20.9846
- VN-MCC_Avg_AUC [5, 30]: 426.683

SMILES: CC[C@H]1C[C@@H]2C[C@H]3c4[nH]c5ccc(OC)cc5c4CCN(C2)[C@@H]13.Cl [Ibogaine hydrochloride]
- HACAT_AUC (HACAT cells): 487.75
- Control_Avg_AUC [1]: 479.316
- MKL1_AUC (MKL-1 cells (VP-MCC)): 439.962
- WAGA_AUC (WAGA cells (VP-MCC)): 409.341
- MKL2_AUC (MKL-2 cells (VP-MCC)): 442.315
- Control-MCC [2]: 51.6972
- HEK293T_AUC (HEK293T cells): 455.404
- MCC_Avg_AUC [3]: 427.619
- UISO_AUC (UISO cells (VN-MCC)): 418.883
- MCC26_AUC (MCC26 cells (VN-MCC)): 419.663
- Control-VP-MCC [4]: 48.777
- VP-MCC_Avg_AUC [4]: 430.539
- MCC13_AUC (MCC13 cells (VN-MCC)): 435.55
- CRL7250_AUC (CRL-7250 cells): 490.013
- NIH3T3_AUC (NIH-3T3 cells): 484.099
- Control-VN-MCC [5]: 54.6174
- VN-MCC_Avg_AUC [5]: 424.699

SMILES: CC1=C(/C=C/C(C)=C/C=C/C(C)=C\C(=O)O)C(C)(C)CCC1 [Isotretinoin]
- HACAT_AUC (HACAT cells; [22]): 476.199
- HACAT_AUC (HACAT cells; area under the dose-response curve, HACAT control cells, AUC<450 = reduced viability): 476.199
- Control_Avg_AUC [1, 23]: 465.51
- MKL1_AUC (MKL-1 cells (VP-MCC); [24]): 418.758
- MKL1_AUC (MKL-1 cells (VP-MCC); area under the dose-response curve, MKL-1 cells, AUC<450 = reduced viability): 418.758
- WAGA_AUC (WAGA cells (VP-MCC); [24]): 423.315
- WAGA_AUC (WAGA cells (VP-MCC); area under the dose-response curve, WAGA cells, AUC<450 = reduced viability): 423.315
- MKL2_AUC (MKL-2 cells (VP-MCC); [24]): 402.656
- MKL2_AUC (MKL-2 cells (VP-MCC); area under the dose-response curve, MKL-2 cells, AUC<450 = reduced viability): 402.656
- Control-MCC [2, 25]: 26.3592
- HEK293T_AUC (HEK293T cells; [22]): 469.58
- HEK293T_AUC (HEK293T cells; area under the dose-response curve, HEK293T control cells; AUC<450 = reduced viability): 469.58
- MCC_Avg_AUC [3, 26]: 439.151
- UISO_AUC (UISO cells (VN-MCC); [24]): 453.203
- UISO_AUC (UISO cells (VN-MCC); area under the dose-response curve, UISO cells, AUC<450 = reduced viability): 453.203
- MCC26_AUC (MCC26 cells (VN-MCC); [24]): 479.481
- MCC26_AUC (MCC26 cells (VN-MCC); area under the dose-response curve, MCC26 cells; AUC<450 = reduced viability): 479.481
- Control-VP-MCC [4, 27]: 50.6007
- VP-MCC_Avg_AUC [4, 28]: 414.91
- MCC13_AUC (MCC13 cells (VN-MCC); [24]): 457.493
- MCC13_AUC (MCC13 cells (VN-MCC); area under the dose-response curve, MCC13 cells, AUC<450 = reduced viability): 457.493
- CRL7250_AUC (CRL-7250 cells; [22]): 458.179
- CRL7250_AUC (CRL-7250 cells; area under the dose-response curve, CRL7250 control cells, AUC<450 = reduced viability): 458.179
- NIH3T3_AUC (NIH-3T3 cells; [22]): 458.083
- NIH3T3_AUC (NIH-3T3 cells; area under the dose-response curve, NIH3T3 control cells, AUC<450 = reduced viability): 458.083
- Control-VN-MCC [5, 29]: 2.118
- VN-MCC_Avg_AUC [5, 30]: 463.393

SMILES: CN(CC1(C)CCCO1)S(=O)(=O)c1ccc(Cl)c(S(N)(=O)=O)c1 (stereo not drawn) [Mefruside]
- HACAT_AUC (HACAT cells; [6]): 466.668
- Control_Avg_AUC [1, 7]: 467.688
- MKL1_AUC (MKL-1 cells (VP-MCC); [8]): 435.185
- WAGA_AUC (WAGA cells (VP-MCC); [9]): 408.321
- MKL2_AUC (MKL-2 cells (VP-MCC); [10]): 389.363
- Control-MCC [2, 11]: 16.8852
- HEK293T_AUC (HEK293T cells; NPC library; qHTS dose-response AUC, HEK293T control): 446.841
- MCC_Avg_AUC [3, 12]: 450.803
- UISO_AUC (UISO cells (VN-MCC); [13]): 490.08
- MCC26_AUC (MCC26 cells (VN-MCC); [14]): 494.694
- VP-MCC_Avg_AUC [4, 15]: 410.957
- Control-VP-MCC [4, 16]: 56.732
- MCC13_AUC (MCC13 cells (VN-MCC); [17]): 487.176
- CRL7250_AUC (CRL-7250 cells; [18]): 471.553
- NIH3T3_AUC (NIH-3T3 cells; [19]): 485.692
- VN-MCC_Avg_AUC [5, 20]: 490.65
- Control-VN-MCC [5, 21]: -22.9615
